Data from patent publication US20080125377A1, “DELIVERY SYSTEM FOR ANTIANGIOGENIC AND ANTIINFLAMMATORY PHARMACEUTICALS AND METHOD OF USE” (priority 2006, published 2008).
Entries after “also recorded” stand apart in the source; their conditions may differ.

Tests used:
[1] = test system: human choroidal endothelial cells; assay: Cytotoxicity (caspase-3/7 and LDH activities), confluent human choroidal endothelial cells; assay type: cell-based; conditions: range of concentrations used for efficacy testing
Protocol: (§1) Objective: The present study was conducted to evaluate the ability of a novel tyrosine kinase inhibitor, BOL-303213-X, to prevent vascular endothelial cell proliferation in vitro using human retinal, choroidal, and dermal microvascular endothelial cells, as well as bovine retinal endothelial cells. Inhibition of outgrowths in a human choroid explant assay was also used to evaluate BOL-303213-X activity in a more complex multi-cellular angiogenesis ex vivo model. Furthermore, caspase-3/7 and lactate dehydrogenase (LDH) activities were also determined following treatment of human retinal and choroidal endothelial cells with BOL-303213-X as a preliminary measure of cytotoxicity. Methods: Human retinal and choroidal vascular endothelial cells were isolated and cultured from human donor eyes. Human dermal microvascular endothelial cells and bovine retinal endothelial cells were purchased from commercial sources. Vascular endothelial cell proliferation was measured by comparing the number of viable cells using a commercial cell viability assay kit. Inhibition of choroid outgrowths was evaluated in a human explant assay. Caspase-3/7 and LDH activities were utilized to assess cytotoxicity.

[2] = test system: rhVEGF165-induced blood-retinal barrier breakdown; assay: Blood-retinal barrier breakdown induced by rhVEGF165 in pigmented rabbits (vitreous fluorophotometry); assay type: in vivo
Protocol: (§2) To expand the efficacy observation of BOL-303213-X in non-ocular system, an ocular efficacy study was conducted in rabbits that included ocular observations to evaluate tolerance of intravitreal administration of BOL-303213-X in hydroxypropyl methylcellulose (HPMC). A rabbit model of blood-retinal barrier (BRB) breakdown induced by intravitreal administration of recombinant human vascular endothelial growth factor (rhVEGF) was used. This model mimics pathologic situations such as macular edema, in which VEGF contributes to increased retinal vascular permeability resulting in edema. In this study 30 μg BOL-303213-X in 50 μl of HPMC was given 3 or 5 days before the VEGF challenge with the evaluation of the BRB integrity also at 2 days after the VEGF challenge.
BOL-303213-X/HPMC Suspension: Evaluation of Efficacy in Pigmented Rabbits Using a Model of Blood-Retinal Barrier Breakdown Induced by VEGF.
Purpose: The aim of this study was to evaluate the efficacy of BOL-303213-X (30 μg) in hydroxypropyl methylcellulose (HPMC) suspension in pigmented rabbits using a model of blood-retinal barrier breakdown induced by rhVEGF 165.
(§3) Methods: Eighty four (84) pigmented rabbits were allocated into 8 groups: three groups were given an intravitreal injection (50 μl) of BOL-303213-X (30 μg) in HPMC, three groups were given an intravitreal injection of HPMC vehicle and two groups were given no treatment. The rhVEGF 165 challenge was performed three days after the treatment injection to three groups (BOL-303213-X-treated, vehicle-treated, and untreated). The rhVEGF 165 challenge was also performed at five days after the treatment injection to four groups (BOL-303213-X-treated, vehicle-treated (n=2), and untreated). One group served as control for the tolerability of BOL-303213-X injection. Breakdown of the blood-retinal barrier was evaluated 24 h (one vehicle-treated group) and 48 h (the other six groups) after rhVEGF 165 challenge by fluorescein leakage from retinal vasculature into the vitreous using non-invasive scanning ocular fluorophotometry. Assessment of tolerability was evaluated by slit-lamp examination, laser flare measurements (LFM) of anterior chamber using a laser flare meter, intraocular pressure (IOP) measurements using a pneumotonometer and vitreo-retinal fluorophotometry. These examinations were performed before injection, before the rhVEGF165 challenge and the day of euthanasia. Results: The general behavior of animals was not altered by the treatment. […] No relevant complications were found during the clinical follow-up.

[3] = test system: laser-induced choroidal neovascularization; assay: Laser-induced choroidal neovascularization in cynomolgus monkeys (fluorescein angiography grading); assay type: in vivo, cynomolgus monkeys (Macaca fascicularis)
Description: BOL-303213-X/HPMC Suspension: Evaluation of Efficacy in Monkeys Using a Laser-Induced Choroidal Neovasuclarization Model.
Purpose: This study was done to qualitatively evaluate the potential inhibitory effect of BOL-303213-X on laser-induced choroidal neovascularization in cynomolgus monkeys when administered biweekly by intravitreal injection beginning at the time of laser treatment.
Methods: Eight cynomolgus monkeys (Macaca fascicularis) were used in this study. The animals were assigned to the study using a computerized procedure designed to achieve body weight balance with respect to groups. The animals were anesthetized with ketamine and xylazine and the eyes dilated with a mydriatic. The macula of both eyes of each animal received laser photocoagulation treatment using a 532 nm diode green laser and slit lamp delivery system and a plano fundus contact lens. This is a standard method for inducing choroidal neovascularization. Nine areas were symmetrically placed in the macula of each eye. The laser parameters included a 75 micron spot size, 0.1 second duration at power settings ranging from 400 to 750 mW. […] Fuorescein angiograms were evaluated according to the following grading system for evidence of excessive permeability (i.e. fluorescein leakage). […]

[4] = test system: human retinal endothelial cells; assay: Vascular endothelial cell proliferation (cell viability assay kit), human retinal endothelial cells; assay type: cell-based; conditions: dose-dependent
Protocol: as §1

[5] = test system: human dermal microvascular endothelial cells; assay: Vascular endothelial cell proliferation (cell viability assay kit), human dermal microvascular endothelial cells; assay type: cell-based; conditions: dose-dependent
Protocol: as §1

[6] = test system: human choroidal endothelial cells; assay: Vascular endothelial cell proliferation (cell viability assay kit), human choroidal endothelial cells; assay type: cell-based; conditions: dose-dependent
Protocol: as §1

[7] = test system: human choroid explant outgrowths; assay: Human choroid explant outgrowth assay (ex vivo); assay type: cell-based; conditions: human choroidal outgrowth assay
Protocol: as §1

[8] = Ocular tolerability in the rabbit VEGF efficacy study (slit-lamp, laser flare, IOP); assay type: in vivo
Protocol: as §2, §3

[9] = test system: bovine retinal endothelial cells; assay: Vascular endothelial cell proliferation (cell viability assay kit), bovine retinal endothelial cells; assay type: cell-based; conditions: dose-dependent
Protocol: as §1

[10] = test system: human retinal endothelial cells; assay: Cytotoxicity (caspase-3/7 and LDH activities), confluent human retinal endothelial cells; assay type: cell-based; conditions: range of concentrations used for efficacy testing
Protocol: as §1

[11] = test system: Human retinal endothelial cells (HREC); assay: Network formation assay in Matrigel, human retinal endothelial cells (HREC); assay type: cell-based; conditions: 1% FBS-RF6A medium, 20 ng/ml rhVEGF, 24 hours, approximate, read-out: ED50, inhibition of network formation of human retinal endothelial cells in Matrigel
Protocol: Evaluation of Efficacy of BOL-303213-X In Human Retinal Endothelial Cells (HREC) Using the Network Formation Assay in Matrigel.
Objective: This study was conducted to evaluate the ability of a novel tyrosine kinase inhibitor, BOL-303213-X, to prevent vascular endothelial cell network formation in an in vitro angiogenesis model—network formation assay in Matrigel.
Methods: Human retinal vascular endothelial cells were isolated and cultured from human donor eyes and characterized by Dio-Ac-LDL uptake. Cell network formation was evaluated after these cells were cultured in Matrigel in 1% FBS-RF6A medium with 20 ng/ml rhVEGF and various doses of BOL-303213-X (30, 60, 200, 600 and 1200 nM) for 24 hours. Cell isolates and cultures from three separated donors were used. The total cell network areas were computed by an image analysis software.

[12] = Ocular tolerability following a single intravitreal administration in pigmented rabbits; assay type: in vivo
Protocol: BOL-303213-X In HPMC Suspension. Evaluation of Ocular Tolerability Following a Single Intravitreal Administration in Pigmented Rabbits.
Purpose: The aims of this study were to determine the ocular tolerability and pharmacokinetics of BOL-303213-X in Hydroxy Propyl Methyl Cellulose (HPMC) suspension after a single intravitreal injection at 4 doses: 10, 15, 20 and 30 μg.
Methods: One hundred and two rabbits were allocated into four-dose groups (group 1: 10 μg, group 2: 15 μg, group 3: 20 μg and group 4: 30 μg of BOL-303213-X in HPMC suspension) and one control group (HPMC). Each group was divided in four time-points (15 min, Days 1, 3 and 5) except the control group (one time-point: Day 5). Each animal received an intravitreal injection of test article (50 μl) in the right eye. Tolerability was evaluated by slit lamp examination, anterior chamber inflammation (flare) by laser flare measurements (LFM), intraocular pressure measurements and integrity of the blood retinal barrier (BRB) by vitreous fluorophotometry. These examinations were performed before injection and, on Days 1, 3 and 5. Results: The general behavior of animals was not altered by the treatment. […] No relevant complications were found during the clinical follow-up. […] The blood-retinal barrier was not affected by the different injections. […] There was no difference in IOP between the BOL-303213-X injected and control eyes at any time points.

[13] = Tolerability of intravitreal BOL-303213-X in HPMC in cats; assay type: in vivo; conditions: intravitreal 10 μg in HPMC, statement also covers four pharmacokinetic studies, visible aggregates in vitreous in certain studies
[14] = 10-30 μg in HPMC, single intravitreal injection

CC(C)Cn1c2ccc(Nc3ncccn3)cc2c2c3c(c4c(c21)CCc1nn(C)cc1-4)C(=O)NC3 [BOL-303213-X]
Caspase-3/7 activity [1]: no significant increase
LDH activity [1]: no significant increase
Effect on VEGF-induced retinal vascular permeability / blood-retinal barrier breakdown (in words) ([2]; 30 μg in 50 μl HPMC intravitreal, 3 days before VEGF challenge): significantly reduced; also recorded: effective at blocking
Inhibition of vitreous fluorescein leakage vs rhVEGF165 plus HPMC vehicle ([2]; 30 μg in 50 μl HPMC intravitreal, 3 days before rhVEGF165 challenge, read 48 h after challenge, p=0.04): 52.7%
Vitreous fluorescein leakage (mean±SD, n=12) ([2]; 30 μg in HPMC intravitreal, 3 days before rhVEGF165 challenge, read 48 h after challenge): 8,458.8±7,067.4
Vitreous fluorescein leakage (mean±SD, n=12) ([2]; 30 μg in HPMC intravitreal, 5 days before rhVEGF165 challenge): 15,228.2±10,364.6
Inhibition of vitreous fluorescein leakage vs vehicle ([2]; 30 μg in HPMC intravitreal, 5 days before rhVEGF165 challenge, trend, not statistically significant (p>0.05)): 57.7%
Percent of grade IV lesions vs HPMC-vehicle contralateral eye ([3]; 45 μg in HPMC intravitreal after laser and two weeks post-laser, 2, 3 and 4 weeks post-laser): consistently lower
Inhibition of choroidal neovascularization (in words) ([3]; 45 μg in HPMC suspension, injected after laser challenge): effective at inhibiting choroidal neovascularization
Inhibition of proliferation [4]: inhibited proliferation
Inhibition of proliferation [5]: inhibited proliferation
Inhibition of proliferation [6]: inhibited proliferation
Inhibition of choroid outgrowths [7]: effective in inhibiting choroid outgrowths
Ocular tolerance observations ([8]; 30 μg in 50 μl HPMC intravitreal, except some eyes with blurred vitreous): no observed tolerance concerns
Body weights of the animals ([8]; 30 μg in HPMC, intravitreal): within a normal range
General behavior of animals ([8]; 30 μg in HPMC, intravitreal): not altered
Toxicity by slit-lamp examination, laser flare and IOP measurements ([8]; 30 μg in HPMC, single intravitreal injection): no evidence of toxicity
Overall safety conclusion ([8]; HPMC suspension at 30 μg-dose, normal pigmented rabbits): appeared to be safe
Inhibition of proliferation [9]: inhibited proliferation
Caspase-3/7 activity [10]: no significant increase
LDH activity [10]: no significant increase
EC50 [11]: ~180 nM
Toxicity by clinical examination, laser flare and IOP measurements ([12]; 10, 15, 20, 30 μg in HPMC, single intravitreal injection 50 μl): no evidence of toxicity
Clinical observation in the vitreous following the intravitreal injection ([12]; 10-30 μg in HPMC suspension): small aggregate of drug precipitates
Blood-retinal barrier integrity (vitreous fluorophotometry) [12, 14]: not affected
Body weights of the animals [12, 14]: within a normal range
General behavior of animals [12, 14]: not altered
Anterior chamber inflammation ([12]; 1 day after the injection, not dose-dependent): transient anterior inflammation
Animals with some inflammatory cells in the vitreous cavity at fundus examination ([12]; Day 5, at least 1 animal of each group (control group included)): 9 rabbits out of 30
Overall safety conclusion ([12]; HPMC suspension at 10, 15, 20 and 30 μg-doses, normal pigmented rabbit): appeared to be safe
IOP, injected vs control eyes ([12]; any time points): no difference
Ocular tolerability [13]: no major ocular tolerance concerns
